Square brackets hold non-standard residues; d marks the D form. Peptide text beside a SMILES is read from it.
Experiments:
[1] = target: cMet (Homo sapiens, UniProt P08581); experiment: Inhibition of purified kinases; assay type: biochemical; conditions: purified kinase
[2] = target: VEGFR3 (Homo sapiens, UniProt P35916); experiment: Inhibition of purified kinases; assay type: biochemical; conditions: purified kinase
[3] = target: PKCα (Homo sapiens, UniProt P17252); experiment: Inhibition of purified kinases; assay type: biochemical; conditions: purified kinase
[4] = target: Src (Homo sapiens, UniProt P12931); experiment: Inhibition of purified kinases; assay type: biochemical; conditions: purified kinase; nintedanib worked at much lower concentrations
[5] = target: PDGFRα (Homo sapiens, UniProt P16234); experiment: Inhibition of purified kinases; conditions: purified kinase
[6] = target: VEGFR2 (Homo sapiens, UniProt P35968); experiment: Inhibition of purified kinases; assay type: biochemical; conditions: purified kinase; nintedanib worked at much lower concentrations
Sequence of VEGFR2 (P35968 20-1356, species assumed): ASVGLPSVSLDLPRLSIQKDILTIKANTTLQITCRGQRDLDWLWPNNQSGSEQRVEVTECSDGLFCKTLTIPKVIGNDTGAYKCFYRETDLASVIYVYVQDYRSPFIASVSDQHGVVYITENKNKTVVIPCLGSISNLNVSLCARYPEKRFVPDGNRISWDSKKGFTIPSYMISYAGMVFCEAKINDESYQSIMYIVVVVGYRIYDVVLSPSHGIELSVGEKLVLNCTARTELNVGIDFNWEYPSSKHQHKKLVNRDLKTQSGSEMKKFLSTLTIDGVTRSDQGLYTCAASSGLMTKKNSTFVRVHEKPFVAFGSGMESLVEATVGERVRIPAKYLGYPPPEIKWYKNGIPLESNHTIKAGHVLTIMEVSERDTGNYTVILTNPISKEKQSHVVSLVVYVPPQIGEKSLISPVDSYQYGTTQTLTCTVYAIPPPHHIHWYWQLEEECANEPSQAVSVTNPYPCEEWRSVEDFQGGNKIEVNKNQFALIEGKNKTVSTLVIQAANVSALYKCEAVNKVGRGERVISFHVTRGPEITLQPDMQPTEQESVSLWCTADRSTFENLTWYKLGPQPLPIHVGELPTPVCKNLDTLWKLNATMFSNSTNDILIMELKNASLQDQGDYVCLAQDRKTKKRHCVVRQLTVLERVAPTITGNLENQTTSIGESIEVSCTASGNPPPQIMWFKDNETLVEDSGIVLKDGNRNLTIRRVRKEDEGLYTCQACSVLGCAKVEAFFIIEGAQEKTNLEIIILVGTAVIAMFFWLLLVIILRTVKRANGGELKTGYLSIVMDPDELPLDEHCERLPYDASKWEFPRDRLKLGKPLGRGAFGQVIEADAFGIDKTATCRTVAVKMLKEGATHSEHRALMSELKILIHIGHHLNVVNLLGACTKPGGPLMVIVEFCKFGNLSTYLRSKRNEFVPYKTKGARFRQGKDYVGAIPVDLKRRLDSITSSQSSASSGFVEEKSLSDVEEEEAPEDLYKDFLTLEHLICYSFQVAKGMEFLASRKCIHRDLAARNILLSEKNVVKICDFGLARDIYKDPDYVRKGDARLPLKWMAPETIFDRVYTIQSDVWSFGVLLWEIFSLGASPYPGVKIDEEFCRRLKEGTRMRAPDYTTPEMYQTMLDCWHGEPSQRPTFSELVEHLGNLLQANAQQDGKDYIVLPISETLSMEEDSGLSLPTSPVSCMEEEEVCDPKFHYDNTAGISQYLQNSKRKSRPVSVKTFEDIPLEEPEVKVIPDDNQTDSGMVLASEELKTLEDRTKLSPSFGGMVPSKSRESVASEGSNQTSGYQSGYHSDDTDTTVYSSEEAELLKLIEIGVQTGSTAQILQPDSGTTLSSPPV

[7] = target: PDGFRβ (Homo sapiens, UniProt P09619); experiment: Inhibition of purified kinases; conditions: purified kinase
Sequence of PDGFRβ (P09619 33-1106, species assumed): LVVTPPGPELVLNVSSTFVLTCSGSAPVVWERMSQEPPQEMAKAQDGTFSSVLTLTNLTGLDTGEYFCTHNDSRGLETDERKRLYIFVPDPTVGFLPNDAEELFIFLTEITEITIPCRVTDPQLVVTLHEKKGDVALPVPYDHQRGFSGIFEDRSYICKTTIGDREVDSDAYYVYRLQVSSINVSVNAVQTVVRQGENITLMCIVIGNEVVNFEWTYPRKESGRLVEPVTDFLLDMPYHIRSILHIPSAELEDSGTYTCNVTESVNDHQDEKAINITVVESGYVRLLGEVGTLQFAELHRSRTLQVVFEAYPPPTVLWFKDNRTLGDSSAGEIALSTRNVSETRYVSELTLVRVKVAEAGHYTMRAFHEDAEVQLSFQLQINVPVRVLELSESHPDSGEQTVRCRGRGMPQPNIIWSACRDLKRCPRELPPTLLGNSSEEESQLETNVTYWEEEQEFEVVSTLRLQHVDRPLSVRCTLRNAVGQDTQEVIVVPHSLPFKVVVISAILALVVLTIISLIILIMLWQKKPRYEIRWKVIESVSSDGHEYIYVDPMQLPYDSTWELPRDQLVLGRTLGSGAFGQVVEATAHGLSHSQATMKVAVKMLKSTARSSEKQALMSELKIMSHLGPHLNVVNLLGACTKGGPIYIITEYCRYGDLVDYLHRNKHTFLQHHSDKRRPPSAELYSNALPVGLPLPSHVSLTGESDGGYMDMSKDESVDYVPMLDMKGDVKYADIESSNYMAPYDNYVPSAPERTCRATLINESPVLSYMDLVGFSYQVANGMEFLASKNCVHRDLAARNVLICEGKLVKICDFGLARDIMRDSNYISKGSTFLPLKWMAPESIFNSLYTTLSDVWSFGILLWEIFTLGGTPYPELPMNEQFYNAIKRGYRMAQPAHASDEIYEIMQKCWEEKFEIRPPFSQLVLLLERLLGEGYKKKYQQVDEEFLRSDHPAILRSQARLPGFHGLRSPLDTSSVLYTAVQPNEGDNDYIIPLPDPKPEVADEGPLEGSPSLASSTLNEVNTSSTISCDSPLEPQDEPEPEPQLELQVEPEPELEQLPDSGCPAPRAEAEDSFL

[8] = target: T1, TGFβR1 (Homo sapiens, UniProt P36897); experiment: Inhibition of purified kinases; assay type: biochemical; conditions: purified kinase; nintedanib worked at much lower concentrations
T1 sequence (P36897 34-503): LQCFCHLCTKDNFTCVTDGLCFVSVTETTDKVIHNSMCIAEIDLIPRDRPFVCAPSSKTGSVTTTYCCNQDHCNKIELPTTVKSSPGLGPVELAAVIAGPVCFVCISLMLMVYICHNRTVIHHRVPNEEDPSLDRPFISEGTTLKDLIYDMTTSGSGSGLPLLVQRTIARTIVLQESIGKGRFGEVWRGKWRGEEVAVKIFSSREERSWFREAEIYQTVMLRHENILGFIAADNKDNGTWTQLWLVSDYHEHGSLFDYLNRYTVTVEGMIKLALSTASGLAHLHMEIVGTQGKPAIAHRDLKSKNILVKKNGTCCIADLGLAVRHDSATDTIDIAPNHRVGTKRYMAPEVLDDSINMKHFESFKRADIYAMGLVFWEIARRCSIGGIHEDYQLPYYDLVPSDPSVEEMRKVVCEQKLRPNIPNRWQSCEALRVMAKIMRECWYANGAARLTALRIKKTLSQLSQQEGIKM

[9] = target: VEGFR1 (Homo sapiens, UniProt P17948); experiment: Inhibition of purified kinases; assay type: biochemical; conditions: purified kinase
Sequence of VEGFR1 (P17948 27-1338, species assumed): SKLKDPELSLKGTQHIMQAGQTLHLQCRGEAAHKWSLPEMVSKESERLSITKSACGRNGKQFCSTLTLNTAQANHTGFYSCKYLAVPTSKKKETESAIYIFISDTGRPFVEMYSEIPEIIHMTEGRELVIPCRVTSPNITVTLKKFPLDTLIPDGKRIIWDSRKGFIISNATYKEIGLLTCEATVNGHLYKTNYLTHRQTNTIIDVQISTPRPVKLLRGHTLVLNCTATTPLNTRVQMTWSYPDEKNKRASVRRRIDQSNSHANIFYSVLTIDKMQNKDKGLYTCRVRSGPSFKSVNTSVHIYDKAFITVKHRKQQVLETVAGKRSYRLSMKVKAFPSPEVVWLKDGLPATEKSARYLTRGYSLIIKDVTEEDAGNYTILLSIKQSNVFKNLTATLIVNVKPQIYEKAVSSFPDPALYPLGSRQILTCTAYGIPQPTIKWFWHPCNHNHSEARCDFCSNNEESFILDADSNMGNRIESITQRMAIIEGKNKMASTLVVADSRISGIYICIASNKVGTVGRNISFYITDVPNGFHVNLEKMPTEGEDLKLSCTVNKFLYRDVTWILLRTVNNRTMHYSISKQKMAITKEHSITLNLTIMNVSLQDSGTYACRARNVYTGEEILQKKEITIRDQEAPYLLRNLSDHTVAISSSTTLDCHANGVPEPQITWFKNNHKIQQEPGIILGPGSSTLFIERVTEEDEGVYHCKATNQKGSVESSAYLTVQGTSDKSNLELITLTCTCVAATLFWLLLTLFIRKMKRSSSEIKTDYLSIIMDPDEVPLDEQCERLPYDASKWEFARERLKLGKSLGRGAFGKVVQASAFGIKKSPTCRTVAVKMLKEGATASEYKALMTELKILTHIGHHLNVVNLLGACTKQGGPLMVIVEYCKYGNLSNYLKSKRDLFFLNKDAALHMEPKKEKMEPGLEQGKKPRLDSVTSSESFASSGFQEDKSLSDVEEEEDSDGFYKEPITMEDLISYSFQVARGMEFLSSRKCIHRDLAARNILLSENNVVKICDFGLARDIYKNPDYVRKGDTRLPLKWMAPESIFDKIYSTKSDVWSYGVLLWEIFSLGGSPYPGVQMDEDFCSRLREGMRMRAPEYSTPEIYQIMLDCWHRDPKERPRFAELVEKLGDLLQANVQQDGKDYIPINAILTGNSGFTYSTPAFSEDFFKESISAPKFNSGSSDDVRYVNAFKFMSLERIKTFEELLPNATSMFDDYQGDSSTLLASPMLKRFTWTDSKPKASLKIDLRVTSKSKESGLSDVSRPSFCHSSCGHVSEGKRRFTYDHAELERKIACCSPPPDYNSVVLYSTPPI

[10] = target: T2, PKCε (Homo sapiens, UniProt Q02156); experiment: Inhibition of purified kinases; assay type: biochemical; conditions: purified kinase
T2 sequence (Q02156 1-737): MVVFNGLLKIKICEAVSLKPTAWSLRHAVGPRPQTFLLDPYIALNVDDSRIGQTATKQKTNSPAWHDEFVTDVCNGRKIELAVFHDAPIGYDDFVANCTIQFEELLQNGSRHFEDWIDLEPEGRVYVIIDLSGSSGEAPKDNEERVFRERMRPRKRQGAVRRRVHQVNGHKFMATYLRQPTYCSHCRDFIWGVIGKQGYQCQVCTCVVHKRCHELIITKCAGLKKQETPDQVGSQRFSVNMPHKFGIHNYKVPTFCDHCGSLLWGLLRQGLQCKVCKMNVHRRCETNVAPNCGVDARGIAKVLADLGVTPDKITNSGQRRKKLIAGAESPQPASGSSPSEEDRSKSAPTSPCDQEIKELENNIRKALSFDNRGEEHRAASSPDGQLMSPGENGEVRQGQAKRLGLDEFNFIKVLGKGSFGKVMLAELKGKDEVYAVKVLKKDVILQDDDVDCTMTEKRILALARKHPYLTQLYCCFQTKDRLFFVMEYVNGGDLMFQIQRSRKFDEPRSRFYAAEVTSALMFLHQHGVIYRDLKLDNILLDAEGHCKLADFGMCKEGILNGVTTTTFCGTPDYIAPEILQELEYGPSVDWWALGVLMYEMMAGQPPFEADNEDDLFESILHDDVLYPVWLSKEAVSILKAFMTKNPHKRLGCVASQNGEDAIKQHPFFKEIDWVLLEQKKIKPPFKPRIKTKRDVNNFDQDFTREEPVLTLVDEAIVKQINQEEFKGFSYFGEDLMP

[11] = in vivo, ip
Experimental: Following a single i.p. dose of the indicated fluorescent peptides, blood was collected from the maxillary vein at intervals and the levels of the peptides in plasma derived from the blood was determined using a fluorescent plate reader.

[12] = Plasma level of fluoresceinated W82-89 after i.p. or i.n. delivery; parameters: species or system mice; conditions: mouse, in vivo
Experimental: administration of the water soluble CSD peptides is a promising route of delivery. Two mice received a single i.p. injection of 0.8 μmol/kg fluoresceinated W82-89 in 100 μl PBS. Two mice received fluoresceinated W82-89 i.n. (4 μmol/kg in 30 μl PBS (15 μl per nostril)). Using calibrated capillary tubes, 50 μl of blood was collected from the maxillary vein from one mouse from each pair at 3 min, 30 min, 2 h, and 6 h; and from the other mouse from each pair at 10 min, 1 h, 4 h, and 8 h. Blood was immediately diluted with 200 μl PBS/10 mM EDTA, and centrifuged to harvest plasma. The level of W82-89 in the plasma was determined using a fluorescent plate reader.

[13] = test system: Ang II-infused mice; experiment: Angiotensin II-induced congestive heart failure (CHF) model; assay type: in vivo
Experimental: FIG. 1 provides an overview of an experiment using Full-Length CSD, 82-89, 88-95, and 94-101 (SEQ ID NO:1, SEQ ID NO:2, SEQ ID NO:3, and SEQ ID NO:4 respectively).
Young mice (3 months old) infused with Ang II or vehicle for two weeks received daily i.p. injections of CSD, the indicated subdomains or scrambled CSD (0.8 μmol/kg). Mice were evaluated by Echocardiography for changes in posterior wall thickness (pWTh), fractional shortening (FS), cardiac output (CO), ejection fraction (EF), and isovolumic relaxation time (IVRT). Significant changes are shown as ***p<0.001 for Sham+Veh vs AngII+Veh. Significant suppression of AngII-induced changes is shown as ^p<0.05, ^^p<0.01, and ^^^p<0.001 for AngII+Veh vs AngII+CSD or AngII+CSD subdomains. The number of mice used in each treatment are shown in the HW/BW data.
Young mice (3 months old) infused with Ang II or vehicle for two weeks received daily i.p. injections of the indicated subdomains of CSD. The results of a typical experiment for Col I and HSP47 (FIG. 4) and for microvascular leakage (FIG. 5) are shown in Western blots (2 to 3 mice per group). The data are quantified below (n=4). Significant changes are shown as *p<0.05 and **p<0.01 for Sham+Veh vs Ang II+Veh. Significant suppression of Ang II-induced changes by subdomains are shown as ^p<0.05, […], and ^^^p<0.001 for Ang II+Veh vs Ang II+CSD subdomains.
Young mice (3 months old) infused with Ang II or vehicle for two weeks received daily i.p. injections of W82-89. IgG heavy chain (IgGH) leakage and Col I accumulation are shown in Western blots. The actin loading control is present twice because IgGH was analyzed in the supernatant fraction of heart homogenate while Col I is found in the pellet fraction. In the quantitation (n=4), significant changes are shown as **p<0.01 and ***p<0.001 for Sham+Veh vs Ang II+Veh and ^^p<0.01 and ^^^p<0.001 for reversal of AngII-induced changes by W82-89.

Sequence of VEGFR3 (P35916 25-1363, species assumed): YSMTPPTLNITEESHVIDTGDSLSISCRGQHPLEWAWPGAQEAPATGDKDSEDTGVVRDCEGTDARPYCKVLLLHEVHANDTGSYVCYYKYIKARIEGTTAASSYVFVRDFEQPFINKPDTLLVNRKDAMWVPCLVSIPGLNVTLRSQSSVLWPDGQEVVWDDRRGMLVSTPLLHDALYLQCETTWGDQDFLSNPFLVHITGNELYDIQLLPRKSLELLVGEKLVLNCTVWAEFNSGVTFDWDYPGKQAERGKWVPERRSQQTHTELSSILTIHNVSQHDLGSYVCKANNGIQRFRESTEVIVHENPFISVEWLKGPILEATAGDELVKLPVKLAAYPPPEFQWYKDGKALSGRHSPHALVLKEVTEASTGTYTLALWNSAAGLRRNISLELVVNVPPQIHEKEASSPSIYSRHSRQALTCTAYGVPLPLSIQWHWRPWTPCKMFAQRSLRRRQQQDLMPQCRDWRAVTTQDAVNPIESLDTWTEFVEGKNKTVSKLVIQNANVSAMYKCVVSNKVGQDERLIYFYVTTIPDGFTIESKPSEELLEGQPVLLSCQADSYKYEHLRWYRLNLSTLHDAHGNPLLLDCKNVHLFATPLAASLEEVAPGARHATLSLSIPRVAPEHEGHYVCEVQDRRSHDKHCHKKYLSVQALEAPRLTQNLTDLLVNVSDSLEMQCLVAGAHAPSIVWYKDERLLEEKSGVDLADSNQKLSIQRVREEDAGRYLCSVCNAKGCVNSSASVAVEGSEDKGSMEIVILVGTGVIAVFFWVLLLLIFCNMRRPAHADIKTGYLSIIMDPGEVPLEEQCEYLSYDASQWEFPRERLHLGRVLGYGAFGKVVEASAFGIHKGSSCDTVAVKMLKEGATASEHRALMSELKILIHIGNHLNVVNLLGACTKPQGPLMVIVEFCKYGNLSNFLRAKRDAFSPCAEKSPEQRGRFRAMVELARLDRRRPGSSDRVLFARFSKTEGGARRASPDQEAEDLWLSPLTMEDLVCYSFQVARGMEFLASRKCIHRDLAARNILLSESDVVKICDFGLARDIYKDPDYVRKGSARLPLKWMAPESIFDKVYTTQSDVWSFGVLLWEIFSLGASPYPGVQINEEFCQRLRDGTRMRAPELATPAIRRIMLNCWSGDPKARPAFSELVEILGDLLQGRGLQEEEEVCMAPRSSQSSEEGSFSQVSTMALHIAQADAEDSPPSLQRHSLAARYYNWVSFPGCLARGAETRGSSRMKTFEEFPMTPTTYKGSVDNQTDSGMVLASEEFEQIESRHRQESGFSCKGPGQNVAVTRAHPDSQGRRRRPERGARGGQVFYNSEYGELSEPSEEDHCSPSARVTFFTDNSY

What does the source list for `COC(=O)c1ccc2c(c1)NC(=O)/C2=C(\Nc1ccc(N(C)C(=O)CN2CCN(C)CC2)cc1)c1ccccc1` [nintedanib]?
inhibition of cMet [1]: has no effect; inhibition of VEGFR3 [2]: inhibits; inhibition of PKCα [3]: has no effect; inhibition of Src [4]: inhibit; inhibition of PDGFRα [5]: inhibits; inhibition of VEGFR2 [6]: inhibit; inhibition of PDGFRβ [7]: inhibits; inhibition of TGFβR1 [8]: inhibit; inhibition of VEGFR1 [9]: inhibits; inhibition of PKCε [10]: has no effect

Which “uptake into plasma following i.p. administration” value [11] does the source give for `CC[C@H](C)[C@H](NC(=O)CNC(=O)[C@H](CC(=O)O)NC(=O)[C@@H](CCCCN)NC(=O)[C@@H](CCCCN)NC(C)=O)C(=O)N[C@@H](Cc1c[nH]c2ccccc12)C(=O)N[C@@H](CCCCN)C(=O)N[C@@H](C)C(=O)N[C@@H](CO)C(=O)N[C@@H](Cc1ccccc1)C(=O)N[C@H](CCCCN)C(=O)N[C@H](CCCCN)C(N)=O` [W82-89] (Ac-[dK][dK]DGIWKASF[dK][dK]-NH2) here?
The value was “much greater than the uptake of CSD or WCSD”.

And the “Area Under the Curve for i.n. delivery relative to i.p. dose” value [12]?
The value was > 1.5 fold.

And the “suppression of AngII-induced fibrosis (Col I levels) in the heart” value ([13]; W82-89 experiment (FIG. 6, 7), daily i.p. injections)?
The value was “suppressed by W82-89 with high significance”.

What about the “suppression of AngII-induced microvascular leakage in the heart (IgG heavy chain level in the tissue)” value ([13]; Western blot, daily i.p. injections) of the same molecule?
Its value is “suppressed by W82-89 with high significance”.

What about the “overall effectiveness of domains in the CHF model (summary of FIGS. 1-7)” value ([13]; summary, FIG. 8) of the same molecule?
Its value is “more effective than 82-89 and at least as effective as 88-95”.

What about the “suppression of the effects of AngII on Heart Weight/Body Weight (HW/BW) ratio” value ([13]; young mice (3 months) infused with Ang II two weeks, daily i.p. injections) of the same molecule?
Its value is “suppressed by W82-89 with high significance”.

Source: patent publication US20230241167A1, “Use of Caveolin-1 Scaffolding Domain Peptides for Treating Disease and Disorders” (MUSC Foundation for Research Development, priority 2020, published 2023)
